Reference: US8557848B2, “4,5-ring annulated indole derivatives for treating or preventing of HCV and related viral infections” (Merck Sharp & Dohme Corp., priority 2006, dated 2013)
Where two headings read alike, the source gives them in different places.

How the values were obtained:
[1] = molecular target: T1, HCV NS5B polymerase (NS5BΔCT21, from HCV-Con 1 isolate, genotype 1b) (Hepatitis C virus genotype 1b, UniProt Q9WMX2); assay: HCV NS5B Polymerase Inhibition Assay; format: biochemical
T1 construct: A soluble C-terminal 21-amino acid truncated NS5B enzyme form; polyhistidine (C); made in house; host or cells: Escherichia coli
In short: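 His-tagged NS5BΔCT21 (30 or 150 nM) with 0.03 μM DCoH75 RNA template, 0.25 mM GAU, 0.1 μM ATP/GTP/UTP, 0.026 μM CTP plus [^33P]-CTP, pH 7.3, 2% DMSO; 2 h at 22° C. Incorporated radioactivity counted after filter capture. IC50 from 10-point 2-fold dilutions (top 200 μM to 1 μM) fitted to Hill equation.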

[2] = system: HCV replicon cells (replicon RNA level); assay: Cell-Based HCV Replicon Assay; settings: Hepatitis C virus, 72 h
In short: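 Replicon cells at 5000/well received 10 serial 2-fold compound dilutions in 0.5% DMSO, 5% FBS, harvested day 3. Replicon RNA quantified by multiplex Taqman RT-PCR on NS5B versus GAPDH; EC50 and EC90 taken at ΔCT = 1 and 3.2 above baseline from sigmoid fits.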

[3] = NS5B polymerase inhibition, [33P]-CTP incorporation, 22° C. for 2 hours, read-out: IC50
[4] = replicon RNA level by real time PCR (Taqman), cells harvested on day 3, read-out: EC50

Structure (SMILES)	IC50 [1, 3] [nM]	EC50 [2, 4] [nM]	IC50 [1] [nM]	EC50 [2] [nM]
CS(=O)(=O)NC(=O)c1c(-c2ccc[nH]c2=O)c2c3occc3c(F)cc2n1Cc1ccc2[nH]c(N)nc2c1 [Compound 169]	< 25	< 500	–	–
CS(=O)(=O)NC(=O)c1c(-c2ccc[nH]c2=O)c2c3occc3c(F)cc2n1Cc1ccc2onc(N)c2c1 [Compound 170]	< 25	< 500	–	–
Cc1cccc(Cn2c(C(=O)NS(=O)(=O)C3CC3)c(-c3ccc[nH]c3=O)c3c4occc4c(F)cc32)c1F [Compound 171]	< 25	< 500	–	–
C[C@@H]1COc2c1ccc1c2c(-c2ccc[nH]c2=O)c(C(=O)NS(=O)(=O)C2CC2)n1Cc1cc(F)ccc1F [Compound 173]	< 25	< 500	–	–
O=C(NS(=O)(=O)C1CC1)c1c(-c2ccc[nH]c2=O)c2c3occc3c(F)cc2n1Cc1cc(=O)[nH]cc1F [Compound 174]	< 25	< 500	–	–
CS(=O)(=O)NC(=O)c1c(-c2ccc[nH]c2=O)c2c3occc3c(F)cc2n1Cc1cc(C(N)=O)ccc1F [Compound 175]	< 25	< 500	–	–
O=C(NS(=O)(=O)C1CC1)c1c(-c2ccc[nH]c2=O)c2c3occc3c(F)cc2n1Cc1cc(F)ccc1F [Compound 177]	< 25	< 500	–	–
O=C(NS(=O)(=O)C1CC1)c1c(-c2ccc[nH]c2=O)c2c3occc3cc(F)c2n1Cc1cc(F)ccc1F [Compound 178]	< 25	< 500	–	–
CS(=O)(=O)NC(=O)c1c(-c2ccc[nH]c2=O)c2c3occc3c(F)cc2n1Cc1cc([N+](=O)[O-])ccc1F [Compound 179]	< 25	< 500	–	–
CS(=O)(=O)NC(=O)c1c(-c2ccc[nH]c2=O)c2c3occc3ccc2n1Cc1cc2ccccc2nc1Cl [Compound 180]	< 25	< 500	–	–
CS(=O)(=O)NC(=O)c1c(-c2ccc[nH]c2=O)c2c3occc3c(F)cc2n1Cc1cc2nc[nH]c2cc1Cl [Compound 182]	< 25	< 500	–	–
NC(=O)c1cc(Cn2c(C(=O)NS(=O)(=O)C3CC3)c(-c3ccc[nH]c3=O)c3c4occc4c(F)cc32)cs1 [Compound 183]	< 25	< 500	–	–
O=c1[nH]cccc1-c1c(C2=NS(=O)(=O)c3ccccc3N2)n(Cc2ccccc2F)c2cc(F)c3ccoc3c12 [Compound 184]	< 25	< 500	–	–
NC(=O)c1cc(Cn2c(C(=O)NS(=O)(=O)C3CC3)c(-c3ccc[nH]c3=O)c3c4c(c(F)cc32)CCO4)cs1 [Compound 185]	< 25	< 500	–	–
CC(C)S(=O)(=O)NC(=O)c1c(-c2ccc[nH]c2=O)c2c3occc3c(F)cc2n1Cc1csc(C(N)=O)c1 [Compound 186]	< 25	< 500	–	–
CC(C)S(=O)(=O)NC(=O)c1c(-c2ccc[nH]c2=O)c2c3c(c(F)cc2n1Cc1csc(C(N)=O)c1)CCO3 [Compound 188]	< 25	< 500	–	–
O=C(NS(=O)(=O)C1CC1)c1c(-c2ccc[nH]c2=O)c2c3occc3c(F)cc2n1Cc1ccc2[nH]c(=O)[nH]c2c1 [Compound 190]	< 25	< 500	–	–
COC(=O)c1ccc(F)c(Cn2c(C(=O)NS(=O)(=O)C3CC3)c(-c3ccc[nH]c3=O)c3c4occc4ccc32)c1 [Compound 192]	< 25	< 500	–	–
CS(=O)(=O)NC(=O)c1c(-c2ccc[nH]c2=O)c2c3occc3c(F)cc2n1Cc1cc(Cl)nc2ccccc12 [Compound 193]	< 25	500 to 1500	–	–
CS(=O)(=O)NC(=O)c1c(-c2ccc[nH]c2=O)c2c3occc3c(F)cc2n1Cc1cc2ccccc2nc1Cl [Compound 194]	< 25	< 500	–	–
NC(=O)c1ccc(F)c(Cn2c(C(=O)NS(=O)(=O)C3CC3)c(-c3ccc[nH]c3=O)c3c4occc4c(F)cc32)c1 [Compound 195]	< 25	< 500	–	–
CS(=O)(=O)NC(=O)c1c(-c2ccc[nH]c2=O)c2c3c(c(F)cc2n1Cc1cc2ccccc2nc1Cl)CCO3 [Compound 196]	< 25	< 500	–	–
NC(=O)c1cnc(F)c(Cn2c(C(=O)NS(=O)(=O)C3CC3)c(-c3ccc[nH]c3=O)c3c4occc4c(F)cc32)c1 [Compound 197]	< 25	< 500	–	–
O=C(NS(=O)(=O)C1CC1)c1c(-c2ccc[nH]c2=O)c2c3occc3c(F)cc2n1Cc1cc([N+](=O)[O-])ccc1F [Compound 198]	< 25	< 500	–	–
CC(C)S(=O)(=O)NC(=O)c1c(-c2ccc[nH]c2=O)c2c3occc3c(F)cc2n1Cc1cc(C(N)=O)ccc1F [Compound 199]	< 25	< 500	–	–

Structure (SMILES)	IC50 [1, 3] [nM]	EC50 [2, 4] [nM]	IC50 [1] [nM]	EC50 [2] [nM]
NC(=O)c1cnc(F)c(Cn2c(C(=O)NS(=O)(=O)C3CC3)c(-c3ccc[nH]c3=O)c3c4c(c(F)cc32)CCO4)c1 [Compound 200]	< 25	< 500	–	–
O=C(NS(=O)(=O)C1CC1)c1c(-c2ccc[nH]c2=O)c2c3occc3ccc2n1Cc1cc2ccccc2nc1Cl [Compound 201]	< 25	< 500	–	–
Nc1ccccc1S(=O)(=O)NC(=O)c1c(-c2ccc[nH]c2=O)c2c3occc3c(F)cc2n1Cc1ccccc1F [Compound 202]	< 25	< 500	–	–
CN(C)S(=O)(=O)NC(=O)c1c(-c2ccc[nH]c2=O)c2c3occc3ccc2n1Cc1cc2ccccc2nc1Cl [Compound 204]	< 25	< 500	–	–
O=C(NS(=O)(=O)C1CC1)c1c(-c2ccc[nH]c2=O)c2c3occc3c(F)cc2n1Cc1cc2nc[nH]c2cc1Cl [Compound 205]	< 25	< 500	–	–
CS(=O)(=O)NC(=O)c1c(-c2ccc[nH]c2=O)c2c3occc3c(F)cc2n1Cc1cc(C(=O)NC2CC2)ccc1F [Compound 206]	< 25	500 to 1500	–	–
O=C(NS(=O)(=O)C1CC1)c1c(-c2ccc[nH]c2=O)c2c3occc3c(F)cc2n1Cc1cc(C(O)CO)ccc1F (stereo not shown) [Compound 207]	< 25	< 500	–	–
CS(=O)(=O)NC(=O)c1c(-c2ccc[nH]c2=O)c2c3occc3c(F)cc2n1Cc1ccc2[nH]c(C(F)(F)F)nc2c1 [Compound 208]	< 25	< 500	–	–
O=C(NS(=O)(=O)C1CC1)c1c(-c2ccc[nH]c2=O)c2c3ncsc3ccc2n1Cc1cc2ccccc2nc1Cl [Compound 209]	< 25	< 500	–	–
O=C(NS(=O)(=O)C1CC1)c1c(-c2ccc[nH]c2=O)c2c3occc3c(F)cc2n1Cc1cc(Cl)nc2ccccc12 [Compound 210]	< 25	500 to 1500	–	–
O=C(NS(=O)(=O)C1CC1)c1c(-c2ccc[nH]c2=O)c2c3occc3c(F)cc2n1Cc1cc2ccccc2nc1Cl [Compound 211]	< 25	< 500	–	–
O=C(NS(=O)(=O)C1CC1)c1c(-c2ccc[nH]c2=O)c2c3occc3c(F)cc2n1Cc1cc2c(=O)[nH]cnc2cc1F [Compound 212]	–	< 500	< 25	–
CCCS(=O)(=O)NC(=O)c1c(-c2ccc[nH]c2=O)c2c3occc3c(F)cc2n1Cc1cc2ccccc2nc1Cl [Compound 213]	< 25	< 500	–	–
CN(C)S(=O)(=O)NC(=O)c1c(-c2ccc[nH]c2=O)c2c3occc3c(F)cc2n1Cc1cc2ccccc2nc1Cl [Compound 215]	< 25	< 500	–	–
CC(C)S(=O)(=O)NC(=O)c1c(-c2ccc[nH]c2=O)c2c3c(c(F)cc2n1Cc1cc2ccccc2nc1Cl)CCO3 [Compound 216]	< 25	< 500	–	–
CS(=O)(=O)NC(=O)c1c(-c2ccc[nH]c2=O)c2c3occc3c(F)cc2n1Cc1cc2cccc(Br)c2o1 [Compound 218]	< 25	> 1500	–	–
CC(C)(C)C(=O)OCn1cccc(-c2c(C(=O)O)n(Cc3cc4ccccc4nc3Cl)c3cc(F)c4ccoc4c23)c1=O [Compound 219]	> 100	< 500	–	–
O=C(NC1CC1)c1ccc(F)c(Cn2c(C(=O)NS(=O)(=O)C3CC3)c(-c3ccc[nH]c3=O)c3c4occc4c(F)cc32)c1 [Compound 221]	< 25	> 1500	–	–
O=C(NS(=O)(=O)C1CC1)c1c(-c2ccc[nH]c2=O)c2c3occc3c(F)cc2n1Cc1ccc2[nH]c(C(F)(F)F)nc2c1 [Compound 222]	< 25	< 500	–	–
Nc1ccccc1S(=O)(=O)NC(=O)c1c(-c2ccc[nH]c2=O)c2c3occc3c(F)cc2n1Cc1cc2ccccc2nc1Cl [Compound 223]	< 25	< 500	–	–
O=C(NS(=O)(=O)C1CC1)c1ccc(F)c(Cn2c(C(=O)NS(=O)(=O)C3CC3)c(-c3ccc[nH]c3=O)c3c4occc4c(F)cc32)c1 [Compound 225]	< 25	500 to 1500	–	–
COc1cc(Cn2c(C(=O)OCOC(=O)C(C)(C)C)c(-c3cccn(COC(=O)C(C)(C)C)c3=O)c3c4occc4c(F)cc32)c(F)cn1 [Compound 226]	> 100	< 500	–	–
CC(C)(C)OC(=O)N(C(=O)OC(C)(C)C)c1cc(Cn2c(C(=O)NS(=O)(=O)C3CC3)c(-c3ccc[nH]c3=O)c3c4occc4c(F)cc32)c(F)cn1 [Compound 227]	> 100	< 500	–	–
CC(C)(C)C(=O)OCOC(=O)c1c(-c2cccn(COC(=O)C(C)(C)C)c2=O)c2c3occc3c(F)cc2n1Cc1cc(=O)n(COC(=O)C(C)(C)C)cc1F [Compound 228]	–	< 500	> 100	–
CC1(C)COc2c1ccc1c2c(-c2ccc[nH]c2=O)c(C(=O)O)n1Cc1cc2ccccc2nc1Cl [Compound 231]	< 25	–	–	< 500
